Data as given in paper PMC6158767, “Vistusertib (dual m-TORC1/2 inhibitor) in combination with paclitaxel in patients with high-grade serous ovarian and squamous non-small-cell lung cancer” (Annals of Oncology, 2018).
Like-named read-outs stand apart in the source and are kept apart here.

Columns and labels:
[1] = Pharmacokinetic sampling (plasma, LC-MS/MS) in the dose-escalation arm; conditions: paclitaxel with vistusertib
Protocol: (§3) This method is applicable to the analysis of AZD2014 in human plasma treated with K2EDTA anticoagulant. AZD2014 and the internal standard (ISTD), 13C22H2AZ12729279 are extracted from human plasma by solid-phase extraction (SPE). After evaporation under nitrogen, the residue is reconstituted and analysed using liquid chromatography (LC) with tandem mass spectrometric detection (MS/MS). The standard curve range is from 20.0 to 20,000 ng/mL for AZD2014, using a plasma sample volume of 0.0250 mL.

[2] = system: Ser^473 p-AKT in platelet-rich plasma; assay: Phosphorylation of AKT (Ser473) in platelet-rich plasma, MSD electrochemiluminescent immunoassay; assay type: in vivo, human
Protocol: Figure 1. Pharmacodynamic profile of vistusertib at 50 mg bd 3/7. Phosphorylation of AKT (Ser473) in platelet-rich plasma was quantified using MSD electrochemiluminescent immunoassays and normalised to corresponding total AKT values. Baseline values were established prior to the start of treatment. On C1D1, only paclitaxel (80 mg/m^2) was administered and a non-significant rise in p-ATK at 4 h following treatment was noted. […] On C1D8, the combination of paclitaxel and vistusertib was administered, which caused a significant reduction of p-AKT compared with baseline. Points represent individual patients, orange line represents mean of up to N = 6 patients. Four samples were excluded because of haemolysis, which interfered with the assay (*P<0.05; paired t-test).
pAkt was assessed in platelet rich plasma (PRP) using a sandwich immunoassay as per manufacturer’s instructions (K11100D, Meso Scale Discovery, Maryland, USA) which consisted of a multiplex assay with plates pre-coated with phospho(Ser473) Akt and total Akt capture antibodies. These plates were blocked for 1 hour, incubated with sample for 1 hour, and finally incubated with an anti-total Akt detection antibody conjugated to MSD-SULFO-TAG for 1 hour before being detected on a Meso Scale Discovery Sector Imager 6000 using electrochemiluminescence in order to determine the percentage of Akt phosphorylated. During validation the inter-assay precision ranged from 6.75 to 7.17%.

patients with sqNSCLC = assay: Toxicity (NCI-CTCAE V4.0) in the squamous non-small cell lung cancer expansion cohort
Protocol: Patients administered with 80 mg/m^2 paclitaxel with 50 mg vistusertib bd 3/7 days for 6/7 weeks, dosing starting concurrently on day 1 of each week
Patients administered with 80 mg/m^2 paclitaxel with 25 mg vistusertib bd 3/7 days for 6/7 weeks, dosing starting concurrently on day 1 of each week treated at paclitaxel 80 mg/m^2/week and vistusertib 25 mg bd 3/7.

clinical = conditions: human, in vivo, geometric mean; for AUC(0-t): AUClast of vistusertib; for Cmax: Cmax of vistusertib; for half-life: HL Lambda_z (half-life) of vistusertib
Protocol: as §3

sqNSCLC = assay: RECIST response in the dose-escalation cohort; assay type: in vivo, human; conditions: vistusertib + weekly paclitaxel
Protocol: (§1) RECIST v1.1 was used to assess tumour response supported by GCIG CA125 response in patients with HGSOC. Response was assessed at the end of every 7-week cycle.

[3] = system: high-grade serous ovarian cancer (HGSOC); assay: Ovarian cancer expansion: RECIST v1.1 / GCIG CA125 response and progression-free survival; assay type: in vivo, human
Protocol: as §1
(§2) Progression-free survival was estimated by the Kaplan–Meier method, beginning on the day of the first dose (C1D1) and continuing until disease progression. Patients who came off study for reasons other than disease progression (clinical or RECIST) were censored. This study is registered with ClinicalTrials.gov, identifier: NCT02193633.
Twenty-seven patients with relapsed/refractory HGSOC were treated at the RP2D. Two patients were replaced as per protocol and were not considered for assessment of response. The median number of previous treatments was three: the majority (26/27; 96%) of patients having received paclitaxel and 3/27 patients (11%) having previously received weekly paclitaxel (supplementary Table S2, available at Annals of Oncology online). The RECIST and CA125 response rates were 13/25 (52%) and 16/25 (64%), respectively (Figure 2A). The mPFS was 5·8 months (95% CI: 3.3–18.5).

patients = assay: Toxicity (NCI-CTCAE V4.0), whole study: hyperglycaemia incidence; conditions: vistusertib + weekly paclitaxel
ovarian cancer models = system: ovarian cancer models; design: method as in PMID 29371953; conditions: in vitro and in vivo; cited from earlier work
[4] = in vivo
Protocol: as §3

[5] = system: patients with advanced solid tumours; assay: Toxicity (NCI-CTCAE V4.0), DLT and MTD in the dose-escalation cohort, vistusertib with weekly paclitaxel 80 mg/m^2
Protocol: The dose of paclitaxel administered was 80 mg/m^2 once weekly for 6/7 weeks in a 7-week cycle. In the first week of the dose-escalation cohorts, patients received only paclitaxel on C1D1, then vistusertib on C1D3 to allow for PK and PD samplings. Patients then received weekly paclitaxel (on days 8, 15, 22, 29, and 36) with vistusertib, also starting on days 8, 15, 22, 29, and 36, given orally twice daily either for three consecutive days per week (schedule A: 3/7 days, 6/7 weeks) or two consecutive days per week (schedule B: 2/7 days, 6/7 weeks). In the dose expansion, schedule A was taken forward with patients dosing with vistusertib weekly on days 1–3 for 6 weeks of a 7-week cycle.

[6] = system: squamous non-small-cell lung cancer (sqNSCLC); assay: Squamous lung cancer expansion: RECIST v1.1 response and progression-free survival; assay type: in vivo, human
Protocol: as §1, §2

[7] = design: method as in PMID 23375793, PMID 25805799; conditions: cited from earlier work
[8] = Lung Expansion 25 mg + paclitaxel (N=24), all grades
[9] = Lung Expansion 50 mg + paclitaxel (N=17), all grades
[10] = HGSOC expansion, 50 mg vistusertib bd 3/7 days + paclitaxel 80 mg/m^2
[11] = HGSOC expansion, 50 mg vistusertib bd 3/7 days + paclitaxel 80 mg/m^2, 25 patients
[12] = sqNSCLC expansion, 25 mg cohort
[13] = sqNSCLC expansion, 25 mg vistusertib bd 3/7 days + paclitaxel 80 mg/m^2

CC(=O)O[C@H]1C(=O)[C@@]2(C)[C@H]([C@H](OC(=O)c3ccccc3)[C@]3(O)C[C@H](OC(=O)[C@H](O)[C@@H](NC(=O)c4ccccc4)c4ccccc4)C(C)=C1C3(C)C)[C@]1(OC(C)=O)CO[C@@H]1C[C@@H]2O [paclitaxel]
Drug-drug PK interaction on drug exposure, combination versus either agent alone [1]: no drug-drug PK interaction
Increase in Ser^473 p-AKT levels in PRP ([2]; 4 h following 80 mg/m^2 paclitaxel alone (C1D1), P = 0.14, statistically non-significant): 1.4 fold

CNC(=O)c1cccc(-c2ccc3c(N4CCOC[C@@H]4C)nc(N4CCOC[C@@H]4C)nc3n2)c1 [vistusertib]
Abdominal cramps/pain, % of patients (patients with sqNSCLC; [8]): 8%
Alopecia, % of patients (patients with sqNSCLC; [8]): 54%
Haemoptysis, % of patients (patients with sqNSCLC; [8]): 4%
Aches and pain, % of patients (patients with sqNSCLC; [9]): 12%
Alopecia, % of patients (patients with sqNSCLC; [9]): 12%
Tolerated dose of vistusertib in sqNSCLC (patients with sqNSCLC; human, in vivo): 25 mg
AUC(0-t) (clinical; 25 mg): 2090 ng·h/mL
Cmax (clinical; 25 mg): 579 ng/mL
half-life (clinical; 25 mg): 3.3 h
AUC(0-t) (clinical; 50 mg): 2600 ng·h/mL
Cmax (clinical; 50 mg): 840 ng/mL
half-life (clinical; 50 mg): 1.8 h
AUC(0-t) (clinical; 75 mg): 7540 ng·h/mL
Cmax (clinical; 75 mg): 1840 ng/mL
half-life (clinical; 75 mg): 2.7 h
AUC(0-t) (clinical; 100 mg): 7560 ng·h/mL
Cmax (clinical; 100 mg): 1960 ng/mL
half-life (clinical; 100 mg): 3 h
Partial responses in patients with sqNSCLC (sqNSCLC): two partial responses
Patients with reduction in size of their tumour ([3]; HGSOC expansion at RP2D): 76%
Patients with reduction in size of their tumour, number ([3]; HGSOC expansion at RP2D): 19 of 25
GCIG CA125 responses, patients [3, 10]: 16/25
Median progression-free survival (mPFS) [3, 10]: 5.8 months
RECIST responses (partial response), patients [3, 10]: 13/25
GCIG CA125 response rate [3, 11]: 64%
RECIST response rate [3, 11]: 52%
RECIST response, N with PR ([3]; OVARIAN Expansion (50 mg AZD2014/80 mg Paclitaxel), 27 patients): 13 PR
Hyperglycaemia, all grades, % of patients (patients): 11%
Hyperglycaemia, grade 3/4, % of patients (patients): 1%
Effect of the combination of vistusertib and paclitaxel on growth (ovarian cancer models): additive effect
AUC versus dose of vistusertib [4]: approximately dose proportional
Drug-drug PK interaction on drug exposure, combination versus either agent alone [4]: no drug-drug PK interaction
Recommended phase II dose (RP2D) of vistusertib ([5]; bd 3/7 days for 6/7 weeks, with 80 mg/m^2 weekly paclitaxel): 50 mg
Dose-limiting toxicities ([5]; in vivo): rash
Dose-limiting toxicities ([5]; schedule A (bd 3/7 days) with weekly paclitaxel 80 mg/m^2): fatigue and mucositis
Maximally tolerated dose (MTD) of vistusertib ([5]; schedule A, bd 3/7 days for 6/7 weeks, with 80 mg/m^2 weekly paclitaxel): 50 mg
Maximally tolerated dose (MTD) of vistusertib ([5]; schedule B, bd 2/7 days for 6/7 weeks, with 80 mg/m^2 weekly paclitaxel): 75 mg
RECIST response, N with PR ([6]; LUNG Expansion (25 mg AZD2014/80 mg Paclitaxel), 24 patients): 8
Patients with reduction in the size of their tumour [6, 12]: 78%
Patients with reduction in the size of their tumour, number [6, 12]: Eighteen of the 23
Median progression-free survival (mPFS) [6, 13]: 5.8 months
RECIST responses (partial response), patients [6, 13]: 8/23
RECIST response rate ([6]; sqNSCLC expansion, 25 mg vistusertib bd 3/7 days + paclitaxel 80 mg/m^2, 23 patients): 35%
Ser^473 p-AKT lower than corresponding time-point following paclitaxel alone ([2]; 4 h, vistusertib 50 mg bd 3/7 + paclitaxel): 62%
Ser^473 p-AKT in PRP, % of pre-dose levels ([2]; 4 h post-vistusertib, 50 mg bd 3/7 in addition to paclitaxel (C1D8), P = 0.0495): 53%
Change of p-AKT in PRP after single dose of vistusertib alone ([2]; C1D4, 50 mg): non-significant reduction
half-life [7]: short half-life
